Data: patent US11964973B2 (priority 2019, dated 2024)
Like-named read-outs stand apart in the source and are kept apart here.

Assays:
DGKα = DGKα (Homo sapiens (Human), UniProt P23743); assay: biochemical; type: biochemical
human DGKζ = human DGKζ (Homo sapiens (Human), UniProt Q13574); assay: biochemical; type: biochemical
[1] = tested on: Human venous whole blood (IFN-γ); assay: Human whole blood IFN-γ assay; type: cell-based
Method: Assay 10: Human Whole Blood IFN-γ Assay
Human venous whole blood (22.5 μL per well), obtained from healthy donors, was pre-treated with compounds for one hour at 37° C. in a humidified 95% air/5% CO2 incubator. The blood was stimulated with 2.5 μL anti-human CD3 and anti-CD28 mAb at a final concentration of 1 μg/mL each for 24 hours at 37° C. IFN-γ in the supernatants was measured using AlphLISA kit (Cat #AL217).

[2] = liposome (LIPGLO) assay, read-out: DGKα LIPGLO IC50
[3] = liposome (LIPGLO) assay, read-out: DGKζ LIPGLO IC50
[4] = human whole blood, anti-CD3 plus anti-CD28, 24 hours, read-out: INFg Whole Blood Normalized Agonist EC50
[5] = Homo sapiens, 24 h, human whole blood, anti-CD3 plus anti-CD28, 24 hours, read-out: INFg Whole Blood Normalized Agonist EC50
[6] = Table A, liposome (LIPGLO) assay, read-out: DGKα
[7] = Table A, liposome (LIPGLO) assay, read-out: DGKζ
[8] = read-out: INFg Whole Blood Normalized Agonist EC50, human whole blood, anti-CD3 plus anti-CD28, 24 hours

human DGKζ, sequence (Q13574 whole entry, looked up): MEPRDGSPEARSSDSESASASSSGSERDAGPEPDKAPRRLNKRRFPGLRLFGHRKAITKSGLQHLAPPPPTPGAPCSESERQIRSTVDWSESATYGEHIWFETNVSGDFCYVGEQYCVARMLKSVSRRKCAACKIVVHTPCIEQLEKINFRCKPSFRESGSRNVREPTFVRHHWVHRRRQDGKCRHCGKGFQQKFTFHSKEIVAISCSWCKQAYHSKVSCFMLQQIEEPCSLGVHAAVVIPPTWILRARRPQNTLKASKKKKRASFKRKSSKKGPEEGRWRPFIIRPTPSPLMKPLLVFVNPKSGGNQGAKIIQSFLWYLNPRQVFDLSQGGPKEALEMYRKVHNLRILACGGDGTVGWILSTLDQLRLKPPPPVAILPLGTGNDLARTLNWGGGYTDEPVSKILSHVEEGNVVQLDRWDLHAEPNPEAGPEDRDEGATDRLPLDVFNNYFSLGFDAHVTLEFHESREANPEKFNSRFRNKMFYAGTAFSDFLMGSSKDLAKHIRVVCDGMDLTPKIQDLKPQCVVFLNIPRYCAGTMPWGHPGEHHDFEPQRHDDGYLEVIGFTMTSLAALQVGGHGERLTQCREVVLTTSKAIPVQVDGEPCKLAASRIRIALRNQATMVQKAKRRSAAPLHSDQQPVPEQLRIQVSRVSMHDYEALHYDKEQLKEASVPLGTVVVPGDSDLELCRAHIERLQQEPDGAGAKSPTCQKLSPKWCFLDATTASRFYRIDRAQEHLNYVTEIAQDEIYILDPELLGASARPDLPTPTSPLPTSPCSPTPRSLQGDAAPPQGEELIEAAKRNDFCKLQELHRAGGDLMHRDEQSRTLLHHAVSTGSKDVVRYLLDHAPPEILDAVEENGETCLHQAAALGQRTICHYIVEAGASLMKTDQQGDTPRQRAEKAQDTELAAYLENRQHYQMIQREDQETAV
DGKα, sequence (P23743 whole entry, looked up): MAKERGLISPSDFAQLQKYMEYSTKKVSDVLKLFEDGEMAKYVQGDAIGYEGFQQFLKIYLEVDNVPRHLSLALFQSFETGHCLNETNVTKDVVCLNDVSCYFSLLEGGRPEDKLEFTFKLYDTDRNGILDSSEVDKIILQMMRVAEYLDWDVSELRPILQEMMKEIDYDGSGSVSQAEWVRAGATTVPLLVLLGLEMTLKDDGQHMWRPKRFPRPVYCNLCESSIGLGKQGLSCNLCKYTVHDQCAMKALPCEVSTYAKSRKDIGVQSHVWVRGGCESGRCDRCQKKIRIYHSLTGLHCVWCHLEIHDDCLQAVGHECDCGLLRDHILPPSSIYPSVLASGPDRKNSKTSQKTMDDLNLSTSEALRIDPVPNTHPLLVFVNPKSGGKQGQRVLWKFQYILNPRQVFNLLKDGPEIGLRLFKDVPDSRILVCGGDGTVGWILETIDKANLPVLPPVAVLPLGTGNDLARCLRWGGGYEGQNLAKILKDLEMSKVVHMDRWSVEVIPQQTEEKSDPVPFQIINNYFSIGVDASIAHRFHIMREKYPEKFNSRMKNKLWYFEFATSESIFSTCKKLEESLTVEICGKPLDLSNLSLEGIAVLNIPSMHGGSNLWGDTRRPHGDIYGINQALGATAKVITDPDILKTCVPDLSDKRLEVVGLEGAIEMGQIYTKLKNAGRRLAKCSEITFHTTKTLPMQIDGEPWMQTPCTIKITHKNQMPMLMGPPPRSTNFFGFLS

Row | Compound | IC50 (DGKα; [2]) [nM] | IC50 (human DGKζ; [3]) [nM] | EC50 [1, 5] [nM] | further results
1 | C[C@@H]1CN(c2cc(=O)n(C)c3ccc(C#N)nc23)CC[C@H]1Oc1cccc(C2CC2)c1 (single isomer, unassigned) [Example 93] | 300 | 18000 | – | EC50 [1, 4]: 5900 nM
2 | Cn1c(=O)cc(N2CCC(Oc3ccc(Cc4ccccc4)cc3)CC2)c2nc(C#N)ccc21 [Example 55, 8-(4-(4-benzylphenoxy)piperidin-1-yl)-5-methyl-6-oxo-5,6-dihydro-1,5-naphthyridine-2-carbonitrile] | 950 | 3800 | 3700 | –
3 | C[C@@H]1CN(c2cc(=O)n(C)c3ccc(C#N)nc23)CC[C@H]1Oc1ccc(C(F)(F)F)cc1F [Example 112, 8-((3R,4R)-4-(2-fluoro-4-(trifluoromethyl)phenoxy)-3-methylpiperidin-1-yl)-5-methyl-6-oxo-5,6-dihydro-1,5-naphthyridine-2-carbonitrile] | 340 | 7500 | 4100 | –
4 | CC(C)c1ccc(O[C@H]2CCN(c3cc(=O)n(C)c4ccc(C#N)nc34)C[C@H]2C)cc1 [Example 176, 8-((3R,4S)-4-(4-isopropylphenoxy)-3-methylpiperidin-1-yl)-5-methyl-6-oxo-5,6-dihydro-1,5-naphthyridine-2-carbonitrile] | 41 | 1300 | 2300 | –
5 | C[C@@H]1CN(c2cc(=O)n(C)c3ccc(C#N)nc23)CC[C@H]1Oc1ccc(F)cc1C(F)(F)F (single isomer, unassigned) [Example 117] | 2000 | 20000 | 4600 | –
6 | CC[C@@H]1CN(c2cc(=O)n(C)c3ccc(C#N)nc23)CC[C@H]1Oc1cccc(C(C)(C)C)c1 (single isomer, unassigned) [Example 198] | – | – | – | IC50 (DGKα; [6]): 160 nM; IC50 (human DGKζ; [7]): 1300 nM; EC50 ([1]; read-out: INFg Whole Blood, human whole blood IFN-γ): 3100 nM
7 | CC(C)c1ccc(O[C@H]2CCN(c3cc(=O)n(C)c4ccc(C#N)nc34)C[C@H]2C)cc1 (single isomer, unassigned) [Example 184] | – | – | – | IC50 (DGKα; [6]): 1400 nM; IC50 (human DGKζ; [7]): 6000 nM; EC50 ([1]; human whole blood IFN-γ, read-out: INFg Whole Blood): 4000 nM
8 | CCC(C)(C)c1ccc(O[C@@H]2CCN(c3cc(=O)n(C)c4ccc(C#N)nc34)C[C@H]2C)cc1 [Example 82, 5-methyl-8-((3R,4R)-3-methyl-4-(4-(tert-pentyl)phenoxy)piperidin-1-yl)-6-oxo-5,6-dihydro-1,5-naphthyridine-2-carbonitrile] | – | – | 650 | IC50 (DGKα; read-out: DGKα LIPGLO IC50): 30 nM; IC50 (human DGKζ; read-out: DGKζ LIPGLO IC50): 3900 nM
9 | Cn1c(=O)cc(N2CCC(Oc3ccc(C(C)(C)C)nn3)CC2)c2nc(C#N)ccc21 [Example 68, 8-(4-((6-(tert-butyl)pyridazin-3-yl)oxy)piperidin-1-yl)-5-methyl-6-oxo-5,6-dihydro-1,5-naphthyridine-2-carbonitrile] | 1700 | 1700 | 9600 | –
10 | Cc1cc(OC2CCN(c3cc(=O)n(C)c4ccc(C#N)nc34)CC2)ccc1C(C)C [Example 60, 8-(4-(4-isopropyl-3-methylphenoxy)piperidin-1-yl)-5-methyl-6-oxo-5,6-dihydro-1,5-naphthyridine-2-carbonitrile] | 240 | 5500 | 7900 | –
11 | CC[C@@H]1CN(c2cc(=O)n(C)c3ccc(C#N)nc23)CC[C@@H]1Oc1cccc(C(C)(C)C)c1 [Example 166, 8-((3R,4S)-4-(3-(tert-butyl)phenoxy)-3-ethylpiperidin-1-yl)-5-methyl-6-oxo-5,6-dihydro-1,5-naphthyridine-2-carbonitrile] | 46 | 1600 | – | EC50 [1, 8]: 790 nM
12 | CC(C)c1ccc(O[C@H]2CCN(c3cc(=O)n(C)c4ccc(C#N)nc34)C[C@H]2C)cc1 (single isomer, unassigned) [Example 177] | 140 | 1100 | 3500 | –
13 | CCCCc1ccc(OC2CCN(c3cc(=O)n(C)c4ccc(C#N)nc34)CC2)cc1 [Example 56, 8-(4-(4-butylphenoxy)piperidin-1-yl)-5-methyl-6-oxo-5,6-dihydro-1,5-naphthyridine-2-carbonitrile] | 840 | 13000 | 3800 | –
14 | Cc1ccc(O[C@@H]2CCN(c3cc(=O)n(C)c4ccc(C#N)nc34)C[C@H]2C)cc1 (single isomer, unassigned) [Example 120] | 350 | 73000 | 4700 | –
15 | C[C@@H]1CN(c2cc(=O)n(C)c3ccc(C#N)nc23)CC[C@H]1Oc1ccc(C2CCCC2)cc1 [Example 100, 8-((3R,4R)-4-(4-cyclopentylphenoxy)-3-methylpiperidin-1-yl)-5-methyl-6-oxo-5,6-dihydro-1,5-naphthyridine-2-carbonitrile] | 110 | 28000 | 2700 | –
16 | CC(C)c1cccc(O[C@@H]2CCN(c3cc(=O)n(C)c4ccc(C#N)nc34)C[C@H]2C)c1 [Example 122, 8-((3R,4R)-4-(3-isopropylphenoxy)-3-methylpiperidin-1-yl)-5-methyl-6-oxo-5,6-dihydro-1,5-naphthyridine-2-carbonitrile] | 17 | 28000 | 5800 | –
17 | CC[C@@H]1CN(c2cc(=O)n(C)c3ccc(C#N)nc23)CC[C@H]1Oc1ccc(OC(C)(C)C)cc1 (single isomer, unassigned) [Example 160] | 1700 | 3300 | – | EC50 [1, 4]: 4500 nM
18 | CC[C@@H]1CN(c2cc(=O)n(C)c3ccc(C#N)nc23)CC[C@@H]1Oc1cccc(C(C)(C)C)c1 [Example 165, 8-((3R,4S)-4-(3-(tert-butyl)phenoxy)-3-ethylpiperidin-1-yl)-5-methyl-6-oxo-5,6-dihydro-1,5-naphthyridine-2-carbonitrile] | 96 | 1200 | – | EC50 [1, 8]: 840 nM
19 | CC[C@@H]1CN(c2cc(=O)n(C)c3ccc(C#N)nc23)CC[C@H]1Oc1ccc(OC(C)(C)C)cc1 [Example 158, 8-((3R,4R)-4-(4-(tert-butoxy)phenoxy)-3-ethylpiperidin-1-yl)-5-methyl-6-oxo-5,6-dihydro-1,5-naphthyridine-2-carbonitrile] | – | – | 2000 | IC50 (DGKα; read-out: DGKα LIPGLO IC50): 360 nM; IC50 (human DGKζ; read-out: DGKζ LIPGLO IC50): 1900 nM
20 | CC(C)c1ccc(O[C@@H]2CCN(c3cc(=O)n(C)c4ccc(C#N)nc34)C[C@H]2C)cc1 (single isomer, unassigned) [Example 96] | 57 | 20000 | – | EC50 [1, 4]: 2600 nM
21 | CCC(C)(C)c1ccc(OC2CCN(c3cc(=O)n(C)c4ccc(C#N)nc34)CC2)cc1 [Example 54, 5-methyl-6-oxo-8-(4-(4-(tert-pentyl)phenoxy)piperidin-1-yl)-5,6-dihydro-1,5-naphthyridine-2-carbonitrile] | 540 | 2100 | 2300 | –
22 | Cn1c(=O)cc(N2CCC(Oc3ccc(OC(C)(C)C)cc3)CC2)c2nc(C#N)ccc21 [Example 65, 8-(4-(4-(tert-butoxy)phenoxy)piperidin-1-yl)-5-methyl-6-oxo-5,6-dihydro-1,5-naphthyridine-2-carbonitrile] | 560 | 3300 | 6800 | –
